Experiments:
Interstitial collagenase [1] = biological target: T1, Interstitial collagenase (Homo sapiens, UniProt P03956); assay: Inhibition of Matrix metalloprotease-1
T1 sequence (P03956 whole entry): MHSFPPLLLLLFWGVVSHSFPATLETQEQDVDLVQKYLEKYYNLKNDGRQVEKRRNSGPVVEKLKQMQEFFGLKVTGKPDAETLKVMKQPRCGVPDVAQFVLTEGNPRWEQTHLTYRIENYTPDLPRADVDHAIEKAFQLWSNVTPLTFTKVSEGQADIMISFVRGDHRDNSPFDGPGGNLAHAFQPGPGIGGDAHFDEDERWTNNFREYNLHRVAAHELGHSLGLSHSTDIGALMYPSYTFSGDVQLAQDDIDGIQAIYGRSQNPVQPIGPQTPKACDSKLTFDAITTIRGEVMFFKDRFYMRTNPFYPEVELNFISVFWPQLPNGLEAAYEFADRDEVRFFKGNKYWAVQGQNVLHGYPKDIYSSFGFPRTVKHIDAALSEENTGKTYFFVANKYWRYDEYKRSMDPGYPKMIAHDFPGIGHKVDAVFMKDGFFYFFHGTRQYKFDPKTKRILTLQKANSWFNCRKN

Collagenase 3 = Collagenase 3 (Homo sapiens, UniProt P45452); assay: Inhibition of Matrix metalloprotease-13
[2] = biological target: 72 kDa type IV collagenase (Homo sapiens, UniProt P08253); assay: Inhibition of Matrix metalloprotease-2
Stromelysin-1 = Stromelysin-1 (Homo sapiens, UniProt P08254); assay: Inhibition of Matrix metalloprotease-3
[3] = biological target: Matrix metalloproteinase-9 (Homo sapiens, UniProt P14780); assay: Inhibition of Matrix metalloprotease-9
[4] = Metabolic bioavailability was determined; type: ADME, organism-based; conditions: in vivo
Homo sapiens = assay: […] absorption in Caco-2 cell line monolayers was determined; type: ADME
Interstitial collagenase [5] = biological target: T1, Interstitial collagenase; assay: Inhibition ofMatrix metalloprotease-1

Chain of Stromelysin-1 (P08254 whole entry): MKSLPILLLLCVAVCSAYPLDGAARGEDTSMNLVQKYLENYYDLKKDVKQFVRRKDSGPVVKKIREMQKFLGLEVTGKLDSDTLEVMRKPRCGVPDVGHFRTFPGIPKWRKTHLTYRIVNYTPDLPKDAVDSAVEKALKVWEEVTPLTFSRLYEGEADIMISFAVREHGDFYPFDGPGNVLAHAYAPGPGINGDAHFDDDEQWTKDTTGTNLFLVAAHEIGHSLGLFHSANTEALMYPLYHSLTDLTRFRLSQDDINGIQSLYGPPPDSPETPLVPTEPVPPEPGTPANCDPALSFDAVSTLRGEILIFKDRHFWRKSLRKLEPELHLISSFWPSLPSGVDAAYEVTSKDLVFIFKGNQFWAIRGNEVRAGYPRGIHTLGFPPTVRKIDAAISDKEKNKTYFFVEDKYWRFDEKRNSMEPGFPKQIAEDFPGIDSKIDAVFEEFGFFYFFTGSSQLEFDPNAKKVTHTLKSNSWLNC
Chain of Matrix metalloproteinase-9 (P14780 whole entry): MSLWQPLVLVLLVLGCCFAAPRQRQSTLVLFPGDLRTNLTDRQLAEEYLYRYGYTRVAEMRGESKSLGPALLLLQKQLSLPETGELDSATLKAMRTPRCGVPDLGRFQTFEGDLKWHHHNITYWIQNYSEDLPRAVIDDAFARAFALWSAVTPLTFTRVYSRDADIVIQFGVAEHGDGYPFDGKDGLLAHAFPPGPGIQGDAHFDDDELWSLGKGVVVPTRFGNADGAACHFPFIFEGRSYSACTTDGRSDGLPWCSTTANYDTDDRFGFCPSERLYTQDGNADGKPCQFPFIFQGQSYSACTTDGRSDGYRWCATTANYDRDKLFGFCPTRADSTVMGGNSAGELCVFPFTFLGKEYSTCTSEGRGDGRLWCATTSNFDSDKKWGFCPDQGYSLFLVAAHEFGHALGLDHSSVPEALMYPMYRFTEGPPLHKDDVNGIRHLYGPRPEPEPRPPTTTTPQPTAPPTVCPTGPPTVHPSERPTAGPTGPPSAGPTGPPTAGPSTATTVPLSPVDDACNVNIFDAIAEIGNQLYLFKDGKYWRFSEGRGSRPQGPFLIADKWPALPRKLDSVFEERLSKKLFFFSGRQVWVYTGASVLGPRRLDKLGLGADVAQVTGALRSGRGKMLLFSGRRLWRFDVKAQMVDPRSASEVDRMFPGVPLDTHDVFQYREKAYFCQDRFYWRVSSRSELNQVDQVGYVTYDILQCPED
Chain of 72 kDa type IV collagenase (P08253 whole entry): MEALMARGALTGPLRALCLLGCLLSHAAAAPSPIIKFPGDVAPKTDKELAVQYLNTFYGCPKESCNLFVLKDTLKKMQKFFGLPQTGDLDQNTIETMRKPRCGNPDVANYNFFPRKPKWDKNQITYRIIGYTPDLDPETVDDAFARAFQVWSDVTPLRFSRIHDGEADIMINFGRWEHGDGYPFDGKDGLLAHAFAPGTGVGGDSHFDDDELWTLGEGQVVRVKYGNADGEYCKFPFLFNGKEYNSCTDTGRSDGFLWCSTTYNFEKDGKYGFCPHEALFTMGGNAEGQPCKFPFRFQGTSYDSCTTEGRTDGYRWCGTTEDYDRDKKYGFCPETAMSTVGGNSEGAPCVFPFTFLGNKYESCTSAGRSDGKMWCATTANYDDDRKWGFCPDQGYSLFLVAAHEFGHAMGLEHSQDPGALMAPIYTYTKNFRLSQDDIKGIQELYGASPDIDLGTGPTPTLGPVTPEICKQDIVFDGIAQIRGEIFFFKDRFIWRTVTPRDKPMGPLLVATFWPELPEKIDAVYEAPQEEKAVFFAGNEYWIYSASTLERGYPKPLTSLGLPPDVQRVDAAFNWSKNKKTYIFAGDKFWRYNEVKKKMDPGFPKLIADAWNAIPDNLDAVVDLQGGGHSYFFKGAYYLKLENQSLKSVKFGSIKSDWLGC

Row | IC50 (Interstitial collagenase [1]) | IC50 [2] | IC50 (Stromelysin-1) | IC50 [3] | A (Homo sapiens) | Structure (SMILES) | IC50 (Collagenase 3) | MF [4] | IC50 (Interstitial collagenase [5])
1 | > 10 nM | 49 nM | 47 nM | 655 nM |  | N#Cc1ccc(-c2ccc(OCCC(=O)NO)cc2)cc1 | 64 nM |  | 
2 | 768 nM | 3 nM | 16 nM | 5 nM |  | O=C(NO)C(CCN1C(=O)c2ccccc2C1=O)COc1ccc(-c2ccccc2)cc1 (stereo not drawn) | 7 nM |  | 
3 |  | 24 nM | 69 nM | 25 nM |  | O=C(NO)C(CCn1c(=O)[nH]c2ccccc2c1=O)COc1ccc(-c2ccccc2)cc1 (stereo not drawn) | 65 nM | 52% | 
4 | > 1000 nM | 82 nM | 313 nM | 221 nM |  | O=C(NO)C(CCCN1C(=O)c2ccccc2C1=O)COc1ccc(-c2ccccc2)cc1 (stereo not drawn) |  |  | 
5 | 31 nM | 0.5 nM | 5 nM | 1 nM | 80% | O=C(NO)C(CCn1nnc2ccccc2c1=O)COc1ccc(-c2ccccc2)cc1 (stereo not drawn) | 3 nM | 29% | 
6 | 116 nM | 0.4 nM | 1.1 nM | 0.6 nM | 96% | N#Cc1ccc(-c2ccc(OCC(CCn3nnc4ccccc4c3=O)C(=O)NO)cc2)cc1 (stereo not drawn) | 0.6 nM | 42% | 

Further lines, the compound ahead of its results:

Row | Structure (SMILES) | IC50 (Interstitial collagenase [1]) | IC50 [2] | IC50 (Stromelysin-1) | IC50 [3] | A (Homo sapiens) | IC50 (Collagenase 3) | MF [4] | IC50 (Interstitial collagenase [5])
7 | O=C(NO)C(CCn1nnc2ccccc2c1=O)COCCc1ccc(-c2ccc(Cl)cc2)cc1 (stereo not drawn) |  | 25 nM | 4.3 nM | 3.6 nM |  | 67 nM | 23% | 
8 | O=C(NO)C(CCn1ncc2ccccc2c1=O)COc1ccc(-c2ccccc2)cc1 (stereo not drawn) | > 10000 nM | 6 nM | 62 nM | 33 nM |  | 101 nM | 13% | 
9 | O=C(NO)C(CCN1C(=O)c2ccccc2S1(=O)=O)COc1ccc(-c2ccccc2)cc1 (stereo not drawn) | > 100000 nM | 7 nM | 23 nM | 16 nM |  | 42 nM | 30% | 
10 | CN1C(=O)N(CCC(COc2ccc(-c3ccccc3)cc2)C(=O)NO)C(=O)C1(C)C (stereo not drawn) |  | 36 nM | 71 nM | 199 nM |  | 84 nM | 17% | > 1000 nM
11 | O=C(NO)C(CCn1nnc2ccccc2c1=O)COc1ccc(-c2ccc(Cl)cc2)cc1 (stereo not drawn) | 74 nM | 0.1 nM | 3.2 nM | 0.6 nM | 75% | 0.016 nM | 35% | 
